Our source for the IC50 values is patent publication US11926625B2, “HPK1 antagonists and uses thereof” (Nimbus Saturn, Inc., priority 2021, dated 2024).

A value given as a limit tells only on which side of the number the result lay.

This test deals with T1, HPK1 (Homo sapiens, UniProt Q92918).
T1 construct: purchased Invitrogen
T1 sequence (Q92918 whole entry): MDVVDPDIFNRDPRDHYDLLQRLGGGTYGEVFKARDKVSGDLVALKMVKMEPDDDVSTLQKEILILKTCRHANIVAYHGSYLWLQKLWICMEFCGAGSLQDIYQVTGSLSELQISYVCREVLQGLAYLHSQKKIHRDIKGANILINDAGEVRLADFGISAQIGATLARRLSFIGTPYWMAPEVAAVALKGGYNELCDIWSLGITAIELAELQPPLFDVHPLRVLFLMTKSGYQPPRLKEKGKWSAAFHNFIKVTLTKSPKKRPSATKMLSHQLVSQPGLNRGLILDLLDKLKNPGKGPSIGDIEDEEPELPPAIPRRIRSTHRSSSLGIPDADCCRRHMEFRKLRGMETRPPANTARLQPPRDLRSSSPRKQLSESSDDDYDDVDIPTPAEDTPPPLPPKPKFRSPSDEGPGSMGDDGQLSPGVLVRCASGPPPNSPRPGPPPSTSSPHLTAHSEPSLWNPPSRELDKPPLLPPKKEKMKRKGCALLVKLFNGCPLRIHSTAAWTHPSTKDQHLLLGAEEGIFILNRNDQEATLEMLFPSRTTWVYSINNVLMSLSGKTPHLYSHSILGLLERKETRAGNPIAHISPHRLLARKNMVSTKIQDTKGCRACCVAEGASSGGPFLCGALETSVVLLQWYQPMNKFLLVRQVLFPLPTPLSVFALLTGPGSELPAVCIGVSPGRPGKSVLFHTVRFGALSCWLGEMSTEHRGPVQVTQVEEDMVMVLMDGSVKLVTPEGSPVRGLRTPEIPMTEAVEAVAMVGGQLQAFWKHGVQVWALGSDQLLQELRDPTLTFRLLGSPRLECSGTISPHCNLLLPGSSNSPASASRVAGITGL
The experiment in a line: HPK1 biochemical enzyme assay (microfluidic mobility shift, Caliper). The conditions noted are these: 1.5 nM HPK1 (Invitrogen), 1 mM ATP, 30 min preincubation, 60 min at RT, top concentration 3 μM; read-out: HPK1 1000UMATP caliper IC50. As for the experimental part:
Example 20. HPK1 Biochemical Enzyme Assay
HPK1 biochemical enzyme assay: HPK1 enzyme inhibition was measured using a microfluidic mobility shift assay. Reactions were performed in a 384-well plate, containing 1.5 nM HPK1 (Invitrogen), in assay buffer (Cama Biosciences; pH 7.4). Test compounds were titrated in ten point curves (top final assay concentration 3 μM), and preincubated with enzyme/substrate mix for 30 min prior to initiation of the reaction by addition of ATP (1 mM final concentration) and substrate (1 μM final concentration; Carna Biosciences) diluted in assay buffer supplemented by MgCl2 (final assay concentration of 5 mM). Following 60 min incubation at RT, the reaction was terminated by addition of 60 μl/well termination buffer (Carna Biosciences) and signal determination using a Caliper EZ Reader (Perkin Elmer, UK).
With `Cn1cc(-c2ncc(Nc3ccc(N4CCNCC4)cn3)c3c2CNC3=O)cn1` [Compound I-17, 4-(1-methylpyrazol-4-yl)-7-[(5-piperazin-1-yl-2-pyridyl)amino]-2,3-dihydropyrrolo [3,4-c]pyridin-1-one], the IC50 (in general, the concentration that inhibits the measured activity by half) lay in the range of 1000 to 5000 nM. Under `Cc1cc(-c2ccc(Nc3ccc(N4CCN(C)CC4)cn3)c3c2CNC3=O)cc(=O)[nH]1` [Compound I-57, 4-(6-methyl-2-oxo-1,2-dihydropyridin-4-yl)-7-((5-(4-methylpiperazin-1-yl)pyridin-2-yl)amino) isoindolin-1-one] stands less than 1000 nM; under `O=C1NCc2c(-c3ccncc3)ccc(Nc3cc(C4CCOC4)n[nH]3)c21` (stereo not drawn) [Compound I-36, 4-(4-pyridyl)-7-[(3-tetrahydrofuran-3-yl-1H-pyrazol-5-yl)amino] isoindolin-1-one], less than 1000 nM; under `CN1CCN(c2ccc(Nc3cnc(-c4cncn4C)c4c3C(=O)NC4)nc2)CC1` [Compound I-73, 4-(1-methyl-1H-imidazol-5-yl)-7-((5-(4-methylpiperazin-1-yl)pyridin-2-yl)amino)-2,3-dihydro-1H-pyrrolo[3,4-c]pyridin-1-one], less than 1000 nM. Then `Cc1ncc(-c2ccc(Nc3ccc(N4CCNCC4)cn3)c3c2CNC3=O)n1C` [Compound I-72, 4-(1,2-dimethyl-1H-imidazol-5-yl)-7-((5-(piperazin-1-yl)pyridin-2-yl)amino) isoindolin-1-one], with less than 1000 nM; and `CN1CCN(c2ccc(Nc3ccc(-c4ccncc4C4CCOCC4)c4c3C(=O)NC4)nc2)CC1` [Compound I-70, 7-((5-(4-methylpiperazin-1-yl)pyridin-2-yl)amino)-4-(3-(tetrahydro-2H-pyran-4-yl)pyridin-4-yl)isoindolin-1-one], with 1000 to 5000 nM; and `O=C1NCc2c(Cc3ccccc3)ccc(Nc3ccc(N4CCNCC4)cn3)c21` [Compound I-83, 4-benzyl-7-((5-(piperazin-1-yl)pyridin-2-yl)amino) isoindolin-1-one], with 1000 to 5000 nM. Under `CN1CCN(c2ccc(Nc3ccc(-c4ccccc4)c4c3C(=O)NC4)nc2)CC1` [Compound I-29, 7-[[5-(4-methylpiperazin-1-yl)-2-pyridyl]amino]-4-phenyl-isoindolin-1-one] stands less than 1000 nM; under `CN1CCN(c2ccc(Nc3ccc(-c4cncn4C)c4c3C(=O)NC4)nc2)CC1` [Compound I-54, 4-(3-methylimidazol-4-yl)-7-[[5-(4-methylpiperazin-1-yl)-2-pyridyl]amino] isoindolin-1-one], less than 1000 nM.

For the compound `CN1CCN(c2ccc(Nc3ccc(-c4ccnc(N5CC6CCC(C5)O6)c4)c4c3C(=O)NC4)nc2)CC1` [Compound I-41], the IC50 fell in the range of 1000 to 5000 nM. For `CN1CCN(c2ccc(Nc3ccc(-c4ccncn4)c4c3C(=O)NC4)nc2)CC1` [Compound I-45, 7-[[5-(4-methylpiperazin-1-yl)-2-pyridyl]amino]-4-pyrimidin-4-yl-isoindolin-1-one], the IC50 was less than 1000 nM. Under `CCN1CCN(Cc2ccc(NC(=O)c3ccc(-c4ncc(Nc5ccc(N6CCN(C)CC6)cn5)c5c4CNC5=O)cc3)cc2C(F)(F)F)CC1` [Compound I-24] stands less than 1000 nM. Under `CN1CCN(c2ccc(Nc3ccc(-c4ccccn4)c4c3C(=O)NC4)nc2)CC1` [Compound I-31, 7-[[5-(4-methylpiperazin-1-yl)-2-pyridyl]amino]-4-(2-pyridyl) isoindolin-1-one] stands less than 1000 nM.

As to `O=C1NCc2c(-n3ccnc3)ccc(Nc3ccc(N4CCNCC4)cn3)c21` [Compound I-81, 4-(1H-imidazol-1-yl)-7-((5-(piperazin-1-yl)pyridin-2-yl)amino) isoindolin-1-one], the IC50 lay within 1000 to 5000 nM. Then `O=C1NCc2c(-c3ccccc3)ncc(Nc3ccc(N4CCNCC4)cn3)c21` [Compound I-11, 4-phenyl-7-[(5-piperazin-1-yl-2-pyridyl)amino]-2,3-dihydropyrrolo [3,4-c]pyridin-1-one], with 1000 to 5000 nM. Under `O=C1NCc2c(-c3ccncc3)ncc(Nc3ccc(N4CCNCC4)cn3)c21` [Compound I-1, 7-[(5-piperazin-1-yl-2-pyridyl)amino]-4-(4-pyridyl)-2,3-dihydropyrrolo [3,4-c]pyridin-1-one] stands less than 1000 nM; under `CN1CCN(c2ccc(Nc3ccc(-c4ccncc4)c4c3C(=O)NC4)nc2)CC1` [Compound I-25, 7-[[5-(4-methylpiperazin-1-yl)-2-pyridyl]amino]-4-(4-pyridyl) isoindolin-1-one], less than 1000 nM; under `O=C1NCc2c(-c3ccccn3)ncc(Nc3ccc(N4CCNCC4)cn3)c21` [Compound I-4, 7-[(5-piperazin-1-yl-2-pyridyl)amino]-4-(2-pyridyl)-2,3-dihydropyrrolo [3,4-c]pyridin-1-one], 1000 to 5000 nM. Consider `CN1CCN(c2ccc(Nc3ccc(-c4ccnc(C5CCCOC5)c4)c4c3C(=O)NC4)nc2)CC1` (stereo not drawn) [Compound I-66, 7-((5-(4-methylpiperazin-1-yl)pyridin-2-yl)amino)-4-(2-(tetrahydro-2H-pyran-3-yl)pyridin-4-yl)isoindolin-1-one], for which the concentration for half-maximal inhibition (IC50) fell in the range of 1000 to 5000 nM.

Take `CCc1cnc(N)nc1-c1ccc(Nc2ccc(N3CCN(C)CC3)cn2)c2c1CNC2=O` [Compound I-86, 4-(2-amino-5-ethylpyrimidin-4-yl)-7-((5-(4-methylpiperazin-1-yl)pyridin-2-yl)amino) isoindolin-1-one]: the IC50 was in the range of 1000 to 5000 nM.

For `CNc1cc(-c2ccc(Nc3ccc(N4CCN(C)CC4)cn3)c3c2CNC3=O)ncn1` [Compound I-48, 4-[6-(methylamino)pyrimidin-4-yl]-7-[[5-(4-methylpiperazin-1-yl)-2-pyridyl]amino] isoindolin-1-one], the IC50 was less than 1000 nM. Under `CN1CCN(c2ccc(Nc3ccc(-c4ccnc(C#CC5CCCO5)c4)c4c3C(=O)NC4)nc2)CC1` (stereo not drawn) [Compound I-68] stands less than 1000 nM.

`CN1CCN(c2ccc(Nc3ccc(-c4ccncc4N4CC5CCC(C4)O5)c4c3C(=O)NC4)nc2)CC1` [Compound I-74]: the IC50 lay within 1000 to 5000 nM. Then `O=C1NCc2c(-c3cn(-c4ccccc4)cn3)ccc(Nc3ccc(N4CCNCC4)cn3)c21` [Compound I-80, 4-(1-phenyl-1H-imidazol-4-yl)-7-((5-(piperazin-1-yl)pyridin-2-yl)amino) isoindolin-1-one], with 1000 to 5000 nM. Turning to `CN1CCN(c2ccc(Nc3ccc(-c4ccnc(C#C[C@H]5CCCO5)c4)c4c3C(=O)NC4)nc2)CC1` [Compound I-85], the 50% inhibitory concentration (IC50) is less than 1000 nM. Then `O=C1NCc2c(C3CC3)ncc(Nc3ccc(N4CCNCC4)cn3)c21` [Compound I-12, 4-cyclopropyl-7-[(5-piperazin-1-yl-2-pyridyl)amino]-2,3-dihydropyrrolo [3,4-c]pyridin-1-one], with 1000 to 5000 nM. Then `O=C1NCc2c(-c3cncn3-c3ccccc3)ccc(Nc3ccc(N4CCNCC4)cn3)c21` [Compound I-75, 4-(1-phenyl-1H-imidazol-5-yl)-7-((5-(piperazin-1-yl)pyridin-2-yl)amino) isoindolin-1-one], with less than 1000 nM. Under `CN1CCN(c2ccc(Nc3ccc(-c4ccnc(N(C)C)c4)c4c3C(=O)NC4)nc2)CC1` [Compound I-50] stands less than 1000 nM; under `CC(=O)N1CCN(c2cc(-c3ccc(Nc4ccc(N5CCN(C)CC5)cn4)c4c3CNC4=O)ccn2)CC1` [Compound I-43, 4-[2-(4-acetylpiperazin-1-yl)-4-pyridyl]-7-[[5-(4-methylpiperazin-1-yl)-2-pyridyl]amino] isoindolin-1-one], 1000 to 5000 nM. For the compound `CN1CCN(c2ccc(Nc3ccc(-c4ccnc(N5CC6CCC(C5)O6)n4)c4c3C(=O)NC4)nc2)CC1` [Compound I-82, 4-(2-(8-oxa-3-azabicyclo [3.2.1]octan-3-yl)pyrimidin-4-yl)-7-((5-(4-methylpiperazin-1-yl)pyridin-2-yl)amino) isoindolin-1-one], the IC50 lay in the range of 1000 to 5000 nM. Then `Cn1cc(-c2ccc(Nc3ccc(N4CCNCC4)cn3)c3c2CNC3=O)nc1-c1ccccc1` [Compound I-88, 4-(1-methyl-2-phenyl-1H-imidazol-4-yl)-7-((5-(piperazin-1-yl)pyridin-2-yl)amino) isoindolin-1-one], with 1000 to 5000 nM; and `COc1cccc(-c2ncc(Nc3ccc(N4CCN(C)CC4)cn3)c3c2CNC3=O)c1OC` [Compound I-19, 4-(2,3-dimethoxyphenyl)-7-[[5-(4-methylpiperazin-1-yl)-2-pyridyl]amino]-2,3-dihydropyrrolo [3,4-c]pyridin-1-one], with 1000 to 5000 nM. Then `CN1CCN(c2ccc(Nc3cnc(-c4ccncc4F)c4c3C(=O)NC4)nc2)CC1` [Compound I-22, 4-(3-fluoro-4-pyridyl)-7-[[5-(4-methylpiperazin-1-yl)-2-pyridyl]amino]-2,3-dihydropyrrolo [3,4-c]pyridin-1-one], with 1000 to 5000 nM; and `CN1CCN(c2ccc(Nc3ccc(-c4ccnc(C#Cc5ccn(C)n5)c4)c4c3C(=O)NC4)nc2)CC1` [Compound I-67, 4-(2-((1-methyl-1H-pyrazol-3-yl)ethynyl)pyridin-4-yl)-7-((5-(4-methylpiperazin-1-yl)pyridin-2-yl)amino) isoindolin-1-one], with less than 1000 nM. Then `CNc1nccc(-c2ccc(Nc3ccc(N4CCN(C)CC4)cn3)c3c2CNC3=O)n1` [Compound I-49, 4-[2-(methylamino)pyrimidin-4-yl]-7-[[5-(4-methylpiperazin-1-yl)-2-pyridyl]amino] isoindolin-1-one], with less than 1000 nM. On to `CN1CCN(c2ccc(Nc3ccc(-c4ccnc(N5CCC6(CCNC6)CC5)c4)c4c3C(=O)NC4)nc2)CC1` [Compound I-42, 4-[2-(2,8-diazaspiro [4.5]decan-8-yl)-4-pyridyl]-7-[[5-(4-methylpiperazin-1-yl)-2-pyridyl]amino] isoindolin-1-one], for which the IC50 is less than 1000 nM.
